# From EP0086092A2, “Antifungal compositions” (priority 1982, dated 1983)
# Legend:
# Candida albicans B 311 = assay: disc diffusion, zone of inhibition on seeded agar plates; format: cell-based; settings: 16-18 h; for Zone Size / Zone Size B 311: 28-37°C; for Zone Size Sabouarud Agar / Zone Size YNB agar: Table II, 37°C; for Zone Size YNB agar: lysine; for Zone Size B 311: Table IV-a
# Experimental: The antifungal activity of aculeacin A and the compositions of aculeacin A and fatty acids was measured by disc diffusion.
# The effects of a number of fatty acids on the antifungal activity of aculeacin A were determined by utilizing seeded plates of Candida albicans B 311 in yeast nitrogen base (YNB) agar (Difco) with glucose as the carbon source. A composition containing one unit by weight of aculeacin A and 5 units of fatty acid or the sodium salt thereof was spotted on the seeded plates and the size of the zone of inhibition after 16-18 hours incubation at 28-37 °C was measured.
# Additional fatty acids were tested to determine , if they increased the intrinsic activity of aculeacin A against C. albicans B 311 utilizing seeded plates of YNB agar (Difco) with lysine as the carbon source and seeded plates of Sabouarud dextrose agar (Difco). Compositions containg one µg of aculeacin A and various amounts of the fatty acid was spotted on the seeded plates and the size of the zone of inhibition after 16-18 hours incubation at 37 °C was measured.
# The antifungal effects of compositions containing a single amount of oleic acid as the sodium salt while varying the amounts of aculeacin A were determined by utilizing seeded plates of Candida albicans B 311 in Sabouarud dextrose agar and measuring the zone of inhibition after 16-18 hours incubation at 28-37°C.
# (§1) The antifungal effects of compositions containing a single amount of aculeacin A while varying the amounts. of oleic acid as the sodium salt were determined by utilizing seeded plates of Candida albicans strains B 311, BC 759 and B 3153A and measuring the zone of inhibition after 16-18 hours at 28-37°C. This test was also performed with linoleic acid and linolenic acid.
# (§2) The seeded plates of Candida albicans strains B 311, BC 759, and B 3153A were prepared by inoculating 50 ml of trypticase soy broth (BBL) with one ml of the preserved frozen culture and incubating the inoculum at 37°C for 7 hours on a rotary shaker. Two milliliters of this culture were used to inoculate one liter of Sabouarud dextrose agar (Difco) at 50°C and 15 milliliters of the resultant medium poured into 150 mm petri-dishes.
# Candida albicans B 3153A = assay: as above; format: cell-based; settings: Table IV-a, 16-18 h, 28-37°C
# Experimental: (§3) The antifungal activity of aculeacin A and the compositions of aculeacin A and fatty acids was measured by disc diffusion. Potentiation of antifungal activity was examined by three different methods employing: (1) a single concentration of aculeacin A and a single concentration of known fatty acids; '(2) various concentrations of aculeacin A with a single concentration of individual fatty acids; and (3) various concentrations of fatty acids with a single concentration of aculeacin A. The antifungal activities of aculeacin A and the fatty acids were separately checked as controls.
# as §1, §2
# Candida albicans BC 759 = assay: as above; format: cell-based; settings: Table IV-a, 16-18 h, 28-37°C
# Experimental: as §3, §1, §2
# C. albicans = assay: topical treatment of C. albicans skin infections of mice; format: in vivo; settings: female CF-1 mice, shaved back skin infected with clinical isolates; topical treatment for 5 days; aculeacin A at its MIC for each isolate; compared with aculeacin A itself, Lotrimin cream and control
# Experimental: Clinical isolates of C. albicans were grown in Sabouarud dextrose agar and subcultured into mouse serum and incubated at 35 C. Female mice (CF-1, 4 to 6 weeks old) were shaved on the back (2cm ^2 area).
# The shaved area was cleaned with 70%'alcohol and scrubbed with a wire brush. This area was then painted with the C. albicans in mouse serum as noted above (10^5-10^6 CFu/ml.) and after drying this area was covered with sterile gauze and the infection was allowed to develop over two days. After the development of the infection, the mice were treated with aculeacin A/oleic acid composition, aculeacin A and Lotrimin^R (Clotrimazole-Schering) for 5 days. The minimum inhibitory concentration (MIC) for aculeacin A for each clinical isolate of C. albicans was determined and that amount was employed in each experiment. Commercially available Lotrimin^R cream was utilized in each experiment. […] Note that bacterial contamination was ruled out by microscopic examination. • [formula] where 4 - the most severe infection - zone of inoculation highly erythrematous with culture mainly consisting of C. albicans. • 3 - severe infection with some healing • 2 - less severe infection • 1 - very little infection • 0 - no infection.
# [1] = aculeacin A 0.40 µg + oleic acid (as sodium salt) 5 µg
# [2] = aculeacin A 0.40 µg + oleic acid (as sodium salt) 10 µg
# [3] = aculeacin A 0.40 µg + oleic acid (as sodium salt) 20 µg
# [4] = aculeacin A 0.40 µg + oleic acid (as sodium salt) 40 µg
# [5] = aculeacin A 0.40 µg + oleic acid (as sodium salt) 78 µg
# [6] = aculeacin A 0.40 µg + oleic acid (as sodium salt) 156 µg
# [7] = aculeacin A 0.40 µg + oleic acid (as sodium salt) 312 µg
# [8] = aculeacin A 0.40 µg + oleic acid (as sodium salt) 625 µg
# [9] = aculeacin A 0.40 µg + oleic acid (as sodium salt) 1250 µg
structure (smiles),measurement,setting,value
CCCCCCCC/C=C\CCCCCCCC(=O)O [Oleic Acid],Zone Size,"Candida albicans B 311; Table I, YNB agar, glucose as carbon source, composition of 1 unit by weight aculeacin A + 5 units fatty acid",32 mm
same,Zone Size Sabouarud Agar,"Candida albicans B 311; Sabouarud dextrose agar, aculeacin A 0 µg, fatty acid 250 µg alone",0 mm
same,Zone Size Sabouarud Agar,"Candida albicans B 311; Sabouarud dextrose agar, aculeacin A 0 µg, fatty acid 500 µg alone",0 mm
same,Zone Size Sabouarud Agar,"Candida albicans B 311; Sabouarud dextrose agar, aculeacin A 0 µg, fatty acid 1000 µg alone",0 mm
same,Zone Size Sabouarud Agar,"Candida albicans B 311; Sabouarud dextrose agar, composition of aculeacin A 1 µg + fatty acid 250 µg",28 mm
same,Zone Size Sabouarud Agar,"Candida albicans B 311; Sabouarud dextrose agar, composition of aculeacin A 1 µg + fatty acid 500 µg",26 mm
same,Zone Size Sabouarud Agar,"Candida albicans B 311; Sabouarud dextrose agar, composition of aculeacin A 1 µg + fatty acid 1000 µg",26 mm
same,Zone Size YNB agar,"Candida albicans B 311; YNB agar, aculeacin A 0 µg, fatty acid 250 µg alone",0 mm
same,Zone Size YNB agar,"Candida albicans B 311; YNB agar, aculeacin A 0 µg, fatty acid 500 µg alone",0 mm
same,Zone Size YNB agar,"Candida albicans B 311; YNB agar, aculeacin A 0 µg, fatty acid 1000 µg alone",0 mm
same,Zone Size YNB agar,"Candida albicans B 311; YNB agar, composition of aculeacin A 1 µg + fatty acid 250 µg",35 mm
same,Zone Size YNB agar,"Candida albicans B 311; YNB agar, composition of aculeacin A 1 µg + fatty acid 500 µg",35 mm
same,Zone Size YNB agar,"Candida albicans B 311; YNB agar, composition of aculeacin A 1 µg + fatty acid 1000 µg",35 mm
same,Zone Size,"Candida albicans B 311; Table III, Sabouarud dextrose agar, aculeacin A 0.000 µg, oleic acid (as sodium salt) 12.5 µg alone",0 mm
same,Zone Size,"Candida albicans B 311; Table III, Sabouarud dextrose agar, aculeacin A 0.020 µg + oleic acid (as sodium salt) 12.5 µg",trace
same,Zone Size,"Candida albicans B 311; Table III, Sabouarud dextrose agar, aculeacin A 0.039 µg + oleic acid (as sodium salt) 12.5 µg",28 mm
same,Zone Size,"Candida albicans B 311; Table III, Sabouarud dextrose agar, aculeacin A 0.078 µg + oleic acid (as sodium salt) 12.5 µg",29 mm
same,Zone Size,"Candida albicans B 311; Table III, Sabouarud dextrose agar, aculeacin A 0.156 µg + oleic acid (as sodium salt) 12.5 µg",32 mm
same,Zone Size,"Candida albicans B 311; Table III, Sabouarud dextrose agar, aculeacin A 0.312 µg + oleic acid (as sodium salt) 12.5 µg",35 mm
same,Zone Size,"Candida albicans B 311; Table III, Sabouarud dextrose agar, aculeacin A 0.625 µg + oleic acid (as sodium salt) 12.5 µg",35 mm
same,Zone Size,"Candida albicans B 311; Table III, Sabouarud dextrose agar, aculeacin A 1.25 µg + oleic acid (as sodium salt) 12.5 µg",37 mm
same,Zone Size B 311,Candida albicans B 311; [1],13 mm
same,Zone Size B 311,Candida albicans B 311; [2],14 mm
same,Zone Size B 311,Candida albicans B 311; [3],15 mm
same,Zone Size B 311,Candida albicans B 311; [4],17 mm
same,Zone Size B 311,Candida albicans B 311; [5],20 mm
same,Zone Size B 311,Candida albicans B 311; [6],26 mm
same,Zone Size B 311,Candida albicans B 311; [7],30 mm
same,Zone Size B 311,Candida albicans B 311; [8],32 mm
same,Zone Size B 311,Candida albicans B 311; [9],35 mm
same,Zone Size B 3153-A,Candida albicans B 3153A; [1],13 mm
same,Zone Size B 3153-A,Candida albicans B 3153A; [2],15 mm
same,Zone Size B 3153-A,Candida albicans B 3153A; [3],18 mm
same,Zone Size B 3153-A,Candida albicans B 3153A; [4],17 mm
same,Zone Size B 3153-A,Candida albicans B 3153A; [5],18 mm
same,Zone Size B 3153-A,Candida albicans B 3153A; [6],25 mm
same,Zone Size B 3153-A,Candida albicans B 3153A; [7],25 mm
same,Zone Size B 3153-A,Candida albicans B 3153A; [8],28 mm
same,Zone Size B 3153-A,Candida albicans B 3153A; [9],29 mm
same,Zone Size BC 759,Candida albicans BC 759; [1],13 mm
same,Zone Size BC 759,Candida albicans BC 759; [2],15 mm
same,Zone Size BC 759,Candida albicans BC 759; [3],18 mm
same,Zone Size BC 759,Candida albicans BC 759; [4],18 mm
same,Zone Size BC 759,Candida albicans BC 759; [5],20 mm
same,Zone Size BC 759,Candida albicans BC 759; [6],24 mm
same,Zone Size BC 759,Candida albicans BC 759; [7],28 mm
same,Zone Size BC 759,Candida albicans BC 759; [8],29 mm
same,Zone Size BC 759,Candida albicans BC 759; [9],32 mm
same,reduction in the infection,C. albicans,did not inhibit the infection
